{"source": "patent US20240350467A1", "about": "“[6R]-MTHF IN B6 ENHANCED 5-FU BASED CHEMOTHERAPY OF PANCREATIC CANCER” (Isofol Medical AB, priority 2023, published 2024)", "key": {"[1]": {"experiment": "[6R]-MTHF levels after arfolitixorin versus comparable leucovorin treatment", "type": "in vivo", "description": "Leucovorin and l-leucovorin, both currently approved for treatment of gastrointestinal and other cancers, need to be metabolically activated to [6R]-MTHF to potentiate the effect of 5-FU. This dependency on cellular activation provides a hurdle for reaching sufficient levels of the active [6R]-MTHF. […] Secondly, the enzymatic activation is genetically regulated^16,18, and is therefore associated with variability between individuals and conditions. Arfolitoxirin is believed to be efficacious in a larger proportion of patients with less inter- and intra-individual variability. These differences may potentially turn out to be of significant importance for increased clinical efficacy in 5-FU based cancer treatment."}, "[2]": {"experiment": "Stability of [6R]-5,10-MTHF forms", "type": "physicochemical", "description": "Arfolitixorin (former Modufolin®) is a folate-based biomodulator developed by applicant to improve the outcome of a range of antimetabolite treatments used within oncology. One of the therapeutic areas of specific interest included in the development program of arfolitixorin is as biomodulator of 5-fluorouracil (5-FU) activity in standard treatment regime for advanced, metastatic CRC, such as Stage IV. A stable lyophilizate formulation of the naturally occurring diastereoisomeric folate [6R]-5,10-MTHF has successfully been made from the drug substance arfolitixorin hemisulfate. […] As mentioned in the background section of the present application, [6R]-5,10-methylenetetrahydrofolate, abbreviated herein as [6R]-5,10-MTHF, needs to be metabolically formed when using the widely used folate-based drugs leucovorin and levoleucovorin."}, "[3]": {"conditions": "cited from earlier work"}, "[4]": {"conditions": "cited from earlier work", "remark": "listed apart in the source"}, "[5]": {"conditions": "in vivo; cited from earlier work"}, "[6]": {"test_system": "metastatic pancreatic cancer", "conditions": "PRODIGE 4, 342 patients enrolled; cited from earlier work"}, "[7]": {"conditions": "in vitro; cited from earlier work"}, "[8]": {"test_system": "metastatic pancreatic cancer", "conditions": "MPACT study; cited from earlier work"}, "[9]": {"test_system": "metastatic pancreatic cancer", "conditions": "standard first-line treatment until 2011; cited from earlier work"}}, "note": "Read-outs that look alike come from different tables or passages of the source."}
{"molecule": "Nc1nc2c(c(=O)[nH]1)N1CN(c3ccc(C(=O)N[C@@H](CCC(=O)O)C(=O)O)cc3)C[C@H]1CN2", "note": "[Arfolitixorin, [6R]-5,10-methylenetetrahydrofolate]", "values": [{"measurement": "[6R]-MTHF levels relative to comparable treatment with leucovorin", "setting": "[1]", "value": "3-4 times"}, {"measurement": "stability", "setting": "[2]", "value": "very unstable"}]}
{"molecule": "Cc1ncc(CO)c(CO)c1O.Cl", "note": "[Pyridoxine hydrochloride]", "values": [{"measurement": "solubility in water", "setting": "[3]", "value": "One gram dissolves in 5 mL of water"}, {"measurement": "stability in air", "setting": "[4]; air", "value": "stable in air"}, {"measurement": "stability to sunlight", "setting": "[4]; sunlight", "value": "slowly affected by sunlight"}]}
{"molecule": "Nc1nc2c(c(=O)[nH]1)N(C=O)[C@H](CNc1ccc(C(=O)N[C@@H](CCC(=O)O)C(=O)O)cc1)CN2", "note": "[d-LV]", "values": [{"measurement": "excretion by the kidneys", "setting": "[5]", "value": "slowly excreted"}]}
{"molecule": "FOLFIRINOX", "values": [{"measurement": "median overall survival (mOS)", "setting": "[6]", "value": 11.1, "unit": "months"}, {"measurement": "objective response rate (ORR)", "setting": "[6]", "value": 31.6, "unit": "%"}]}
{"molecule": "Nc1nc(=O)c2c([nH]1)NC[C@H](CNc1ccc(C(=O)N[C@@H](CCC(=O)O)C(=O)O)cc1)N2C=O", "note": "[l-LV, [6S]-5-formyl-THF]", "values": [{"measurement": "conversion to methyl-tetrahydrofolate form", "setting": "[7]", "value": "rapidly converted"}]}
{"molecule": "Nc1ccn([C@@H]2O[C@H](CO)[C@@H](O)C2(F)F)c(=O)n1", "note": "[gemcitabine]", "values": [{"measurement": "median overall survival (mOS)", "setting": "[6]", "value": 6.8, "unit": "months"}, {"measurement": "objective response rate (ORR)", "setting": "[6]", "value": 9.4, "unit": "%"}, {"measurement": "ORR", "setting": "[8]", "value": 7, "unit": "%"}, {"measurement": "mOS", "setting": "[8]", "value": 6.7, "unit": "months"}, {"measurement": "median overall survival (mOS)", "setting": "[9]", "value": "about 6 months"}]}
{"molecule": "Nc1nc2c(c(=O)[nH]1)N1CN(c3ccc(C(=O)N[C@@H](CCC(=O)O)C(=O)O)cc3)C[C@H]1CN2.Nc1nc2c(c(=O)[nH]1)N1CN(c3ccc(C(=O)N[C@@H](CCC(=O)O)C(=O)O)cc3)C[C@H]1CN2.O=S(=O)(O)O", "note": "[arfolitixorin hemisulfate]", "values": [{"measurement": "stability", "setting": "[2]", "value": "unexpectedly stable salt"}]}
